What was measured:
glutamine = test: Plasma glutamine concentration; format: in vivo, human; conditions: cycle 1, day 15 relative to predose on cycle 1, day 1; P = 0.0073; n = 6
[1] = system: renal cell carcinoma (RCC); test: Antitumor activity by RECIST v1.1, RCC cohorts; format: in vivo, human
[2] = All RCC (n = 28), number (percent) of efficacy evaluable patients

Structure (SMILES): O=C(Cc1cccc(OC(F)(F)F)c1)Nc1ccc(CCCCc2nnc(NC(=O)Cc3ccccn3)s2)nn1 [telaglenastat, Telaglenastat]
- increase in plasma glutamine (glutamine): approximately 150%
- Disease control rate (DCR) ([1]; 28 evaluable patients with RCC in both dose escalation and dose expansion, 14/28): 50%
- Best overall response: Partial response [1, 2]: 1 (3.6)
- Best overall response: Progressive disease [1, 2]: 14 (50.0)
- Best overall response: Stable disease [1, 2]: 13 (46.4)
- reduction in target lesions ([1]; clear cell RCC patient with PR (800 mg BID)): 32%
- patients with RCC remaining on study for more than 10 months ([1]; in vivo): Four
- time on study ([1]; one clear cell patient with RCC): > 2.4 years
- overall response rate ([1]; renal cell carcinoma): 5%

— publication PMC9401498 (Clinical Cancer Research, 2021)
